Laboratory results reported in patent US20170065564A1, “BIS-CYCLIC GUANIDINE COMPOUND COMPOSITIONS, METHODS OF USE AND TREATMENT THEREOF” (University of South Florida, priority 2014, published 2017).
Values after ≈ are worked out from the molar mass of the structure shown.

How the values were obtained:
Enterobacter cloacae = experiment: MIC micro broth dilution assay; type: cell-based; settings: for MIC: Enterobacter cloacae
Summary of the method: (§1)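 Multidrug-resistant clinical ESKAPE isolates were grown overnight (Gram-positives in TSB, Gram-negatives in LB), diluted 1:1,000 and exposed to decreasing compound concentrations in DMF (≤2.0% DMF).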

Enterococcus faecium = experiment: MIC micro broth dilution assay; type: cell-based; settings: for MIC: Enterococcus faecium
Summary of the method: as §1

Pseudomonas aeruginosa = experiment: MIC micro broth dilution assay; type: cell-based; settings: for MIC: Pseudomonas aeruginosa
Description: For this study we used a representative panel of multi-drug resistant clinical ESKAPE pathogen isolates (Supplemental Table S6).^42 43 3a, 44 45 Gram-positive organisms were grown in tryptic soy broth media (TSB), whilst Gram-negative organisms were grown in lysogeny Broth (LB), as described by us previously. ^43 MIC and MBC determination assays.
Broth cultures of ESKAPE strains were grown overnight before being diluted 1 in 1,000 in fresh media. Sterile 96-well plates were loaded with culture and compounds (in DMF) were added at decreasing concentrations to equal a total volume of 200 μl per well. Care was taken to not add more than 2.0% DMF to any well. Plates were then incubated at 37° C., and MICs determined after 24 hours by visual inspection for a lack of turbidity in wells. All assays were performed in triplicate with identical results obtained. For both the scaffold ranking and positional scanning samples, relative broad-spectrum activity was determined via stacked scores: […]

[1] = system: Staphylococcus aureus (USA300 strain FPR3757); experiment: Murine model of lethal peritonitis; type: in vivo, mice; settings: 2× MIC, I.M., 1 h post-infection, six mice per group
Summary of the method: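 Mice (six per group) received 1×10^8 CFU ml^−1 S. aureus USA300 FPR3757 in PBS with 5% mucin intraperitoneally; compounds were given I.M., vancomycin control I.V., 1 h post-infection. Survival was monitored twice daily for five days with a pre-moribund endpoint, and groups were compared by log rank test.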

Staphylococcus aureus = experiment: MIC micro broth dilution assay; type: cell-based; settings: for MIC: Staphylococcus aureus
Summary of the method: as §1

[2] = system: Pseudomonas aeruginosa biofilm; experiment: Minimum biofilm eradication concentration (MBEC) assay; type: cell-based; settings: 24 h biofilm, purified compound
Description: (§2) The minimum biofilm eradication concentration (MBEC) was determined in 96-well microtiter plates as follows. Broth cultures of ESKAPE strains were grown using the conditions described above. Biofilms for each of the ESKAPE pathogens were generated from these as we have previously described for S. aureus, however human serum was not used for non-staphylococcal organisms.^44 46 For all organisms, biofilms were developed by standardizing an overnight culture into fresh media to an OD600 of 0.5 and adding 150 μl into each well of a 96-well microtiter plate. […] These cultures were incubated at 37° C. overnight alongside no drug controls. After 24 hours, the media was removed from wells and the biofilm resuspended in phosphate buffered saline (PBS). Cultures were mixed by vigorous pipetting, before being serially diluted in PBS, and plated in duplicate on relevant agar. Plates were incubated at 37° C. for 24 hours, and CFUs determined by enumeration. Each analysis was performed using three technical replicates, and antibiofilm activity was determined by comparing treated to untreated samples.

[3] = system: Enterococcus faecium biofilm; experiment: as above; type: cell-based; settings: 24 h biofilm, purified compound
Description: as §2

[4] = system: Klebsiella pneumoniae biofilm; experiment: as above; type: cell-based; settings: 24 h biofilm, purified compound
Description: as §2

[5] = system: Enterobacter cloacae biofilm; experiment: as above; type: cell-based; settings: 24 h biofilm, purified compound
Description: as §2

[6] = system: Staphylococcus aureus biofilm; experiment: as above; type: cell-based; settings: 24 h biofilm, purified compound
Description: as §2

[7] = system: Acinetobacter baumannii biofilm; experiment: as above; type: cell-based; settings: 24 h biofilm, purified compound
Description: as §2

How did the “stacked score activity, 100/MIC, E” value (Enterobacter cloacae; E. cloacae) turn out when `CCCCCCCN1C(=N)N(CCCC[C@H]2CNC(=N)N2CCc2cccc(C(F)(F)F)c2)C[C@@H]1CCCC` [Compound 1] was run?
Its value is 20.

And the MIC (Enterobacter cloacae; E. cloacae isolate 1404)?
Its MIC is 2 µM (≈ 1.1 µg/mL).

What about the MIC (Enterobacter cloacae; E. cloacae isolate 1405) of the same molecule?
The MIC was 5 µM (≈ 2.75 µg/mL).

What about the MIC (Enterobacter cloacae; E. cloacae isolate 1430) of the same molecule?
The MIC was 3 µM (≈ 1.65 µg/mL).

And the MIC (Enterobacter cloacae; E. cloacae isolate 1431)?
Its MIC is 5 µM (≈ 2.75 µg/mL).

What about the MIC (Enterobacter cloacae; E. cloacae isolate 1445) of the same molecule?
Its MIC is 3 µM (≈ 1.65 µg/mL).

And the MIC (Enterobacter cloacae; E. cloacae isolate 1446)?
The MIC was 7 µM (≈ 3.86 µg/mL).

And the MIC (Enterobacter cloacae; E. cloacae isolate 1447)?
Its MIC is 5 µM (≈ 2.75 µg/mL).

What about the MIC (Enterobacter cloacae; E. cloacae isolate 1448) of the same molecule?
The MIC was 3 µM (≈ 1.65 µg/mL).

And the MIC (Enterobacter cloacae; E. cloacae isolate 1454)?
The MIC was 3 µM (≈ 1.65 µg/mL).

What about the MIC (Enterobacter cloacae; E. cloacae isolate 1455) of the same molecule?
Its MIC is 2 µM (≈ 1.1 µg/mL).

And the MIC (Enterobacter cloacae; purified compound, Table 1)?
Its MIC is 1.63 µM (≈ 0.898 µg/mL).

And the “concentration inhibiting 90% of isolates” value (Enterobacter cloacae; panel of E. cloacae clinical isolates)?
Its value is 10 µM.

What about the “stacked score activity, 100/MIC, E” value (Enterococcus faecium; E. faecium) of the same molecule?
The value was 20.

And the MIC (Enterococcus faecium; E. faecium isolate 1406)?
The MIC was 2 µM (≈ 1.1 µg/mL).

And the MIC (Enterococcus faecium; E. faecium isolate 1407)?
Its MIC is 2 µM (≈ 1.1 µg/mL).

What about the MIC (Enterococcus faecium; E. faecium isolate 1432) of the same molecule?
Its MIC is 2 µM (≈ 1.1 µg/mL).

What about the MIC (Enterococcus faecium; E. faecium isolate 1438) of the same molecule?
Its MIC is 2 µM (≈ 1.1 µg/mL).

And the MIC (Enterococcus faecium; E. faecium isolate 1439)?
Its MIC is 2 µM (≈ 1.1 µg/mL).

What about the MIC (Enterococcus faecium; E. faecium isolate 1443) of the same molecule?
The MIC was 2 µM (≈ 1.1 µg/mL).

What about the MIC (Enterococcus faecium; E. faecium isolate 1444) of the same molecule?
The MIC was 2 µM (≈ 1.1 µg/mL).

And the MIC (Enterococcus faecium; E. faecium isolate 1449)?
The MIC was 2 µM (≈ 1.1 µg/mL).

And the MIC (Enterococcus faecium; E. faecium isolate 1450)?
Its MIC is 2 µM (≈ 1.1 µg/mL).

What about the MIC (Enterococcus faecium; E. faecium isolate 1451) of the same molecule?
Its MIC is 2 µM (≈ 1.1 µg/mL).

What about the MIC (Enterococcus faecium; purified compound, Table 1) of the same molecule?
Its MIC is 1.63 µM (≈ 0.898 µg/mL).

And the MIC (Pseudomonas aeruginosa; P. aeruginosa isolate 1414)?
Its MIC is 5 µM (≈ 2.75 µg/mL).

What about the MIC (Pseudomonas aeruginosa; P. aeruginosa isolate 1415) of the same molecule?
Its MIC is 5 µM (≈ 2.75 µg/mL).

And the MIC (Pseudomonas aeruginosa; P. aeruginosa isolate 1416)?
The MIC was 5 µM (≈ 2.75 µg/mL).

And the MIC (Pseudomonas aeruginosa; P. aeruginosa isolate 1417)?
The MIC was 5 µM (≈ 2.75 µg/mL).

What about the MIC (Pseudomonas aeruginosa; P. aeruginosa isolate 1418) of the same molecule?
The MIC was 7 µM (≈ 3.86 µg/mL).

And the MIC (Pseudomonas aeruginosa; P. aeruginosa isolate 1419)?
The MIC was 5 µM (≈ 2.75 µg/mL).

And the MIC (Pseudomonas aeruginosa; P. aeruginosa isolate 1420)?
The MIC was 5 µM (≈ 2.75 µg/mL).

What about the MIC (Pseudomonas aeruginosa; P. aeruginosa isolate 1421) of the same molecule?
Its MIC is 5 µM (≈ 2.75 µg/mL).

And the MIC (Pseudomonas aeruginosa; P. aeruginosa isolate 1422)?
Its MIC is 5 µM (≈ 2.75 µg/mL).

What about the MIC (Pseudomonas aeruginosa; P. aeruginosa isolate 1423) of the same molecule?
The MIC was 2 µM (≈ 1.1 µg/mL).

What about the MIC (Pseudomonas aeruginosa; purified compound, Table 1) of the same molecule?
Its MIC is 1.63 µM (≈ 0.898 µg/mL).

And the “concentration inhibiting 90% of isolates” value (Pseudomonas aeruginosa; panel of P. aeruginosa clinical isolates)?
The value was 10 µM.

And the “survival of infected mice over 5 day infection period” value [1]?
The value was “all mice survived”.

And the “stacked score activity, 100/MIC, S” value (Staphylococcus aureus; S. aureus)?
Its value is 50.

What about the MIC (Staphylococcus aureus; S. aureus isolate 542) of the same molecule?
The MIC was 2 µM (≈ 1.1 µg/mL).

And the MIC (Staphylococcus aureus; S. aureus isolate 626)?
Its MIC is 2 µM (≈ 1.1 µg/mL).

What about the MIC (Staphylococcus aureus; S. aureus isolate 635) of the same molecule?
The MIC was 2 µM (≈ 1.1 µg/mL).

What about the MIC (Staphylococcus aureus; S. aureus isolate 648) of the same molecule?
The MIC was 2 µM (≈ 1.1 µg/mL).

What about the MIC (Staphylococcus aureus; S. aureus isolate 690) of the same molecule?
Its MIC is 2 µM (≈ 1.1 µg/mL).

What about the MIC (Staphylococcus aureus; S. aureus isolate 693) of the same molecule?
The MIC was 2 µM (≈ 1.1 µg/mL).

And the MIC (Staphylococcus aureus; S. aureus isolate 715)?
Its MIC is 2 µM (≈ 1.1 µg/mL).

What about the MIC (Staphylococcus aureus; S. aureus isolate 728) of the same molecule?
The MIC was 2 µM (≈ 1.1 µg/mL).

What about the MIC (Staphylococcus aureus; S. aureus isolate 834) of the same molecule?
Its MIC is 2 µM (≈ 1.1 µg/mL).

What about the MIC (Staphylococcus aureus; S. aureus isolate 1043) of the same molecule?
The MIC was 2 µM (≈ 1.1 µg/mL).

And the MIC (Staphylococcus aureus; S. aureus isolate 1049)?
The MIC was 2 µM (≈ 1.1 µg/mL).

And the MIC (Staphylococcus aureus; purified compound, Table 1)?
Its MIC is 1.63 µM (≈ 0.898 µg/mL).

And the MBEC50 [2]?
Its MBEC50 is 19.68 µM.

And the MBEC50 [3]?
The MBEC50 was 38.84 µM.

What about the MBEC50 [4] of the same molecule?
The MBEC50 was 6.97 µM.

What about the MBEC50 [5] of the same molecule?
Its MBEC50 is 13.02 µM.

What about the MBEC50 [6] of the same molecule?
Its MBEC50 is 13.87 µM.

And the MBEC50 [7]?
The MBEC50 was 14.82 µM.
